Assay [1] has as its target IRAK4 enzyme (Homo sapiens (Human), UniProt Q9NWZ3). The assay can be described thus: biochemical. Format: biochemical. Particulars: IRAK4 enzyme, TR-FRET, 500 μM ATP. A general note: Time-resolved FRET reads energy transfer from a long-lived donor to a nearby acceptor.
Assay [2] deals with TNFα. Description: cells. Format: cell-based, human. Particulars: Homo sapiens, Monocyte, LPS-stimulated human monocytes, TNFα content; read-out: EC50 TNF.

The term IC50 denotes the concentration that inhibits the measured activity by half. A high value points to a need for much substance. What is called EC50 is the midpoint of the concentration-response curve.

IRAK4 enzyme, sequence (Q9NWZ3 whole entry): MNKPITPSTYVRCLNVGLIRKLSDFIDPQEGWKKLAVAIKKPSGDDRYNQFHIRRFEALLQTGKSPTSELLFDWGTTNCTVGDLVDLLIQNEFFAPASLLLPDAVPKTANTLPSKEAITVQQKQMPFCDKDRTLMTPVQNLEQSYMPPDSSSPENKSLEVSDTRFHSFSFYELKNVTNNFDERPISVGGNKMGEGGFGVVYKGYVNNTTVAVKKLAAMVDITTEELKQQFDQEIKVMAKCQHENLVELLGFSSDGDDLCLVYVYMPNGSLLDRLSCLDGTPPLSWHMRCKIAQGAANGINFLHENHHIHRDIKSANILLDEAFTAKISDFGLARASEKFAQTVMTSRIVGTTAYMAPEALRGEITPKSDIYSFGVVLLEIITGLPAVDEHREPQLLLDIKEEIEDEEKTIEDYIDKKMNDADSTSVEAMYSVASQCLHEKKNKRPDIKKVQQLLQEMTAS

The molecule `COC(=O)N[C@H]1CC[C@H](Nc2cc(-c3ccc4cc(C#N)cnn34)ncc2C(=O)NC[C@@H](F)C(C)(C)OC(C)=O)CC1` [Example 293, (R)-4-(6-(3-cyanopyrrolo[1,2-b]pyridazin-7-yl)-4-(((1r,4R)-4-((methoxycarbonyl)amino)cyclohexyl)amino)nicotinamido)-3-fluoro-2-methylbutan-2-yl acetate] showed an IC50 in assay [1] of 1 nM. Also, the 50% effective concentration (EC50) in assay [2] turned out to be 49 nM.

Molecule `CC(C)(O)[C@H](F)CNC(=O)c1cnc(-c2ccc3cc(C#N)cnn23)cc1N[C@H]1CC[C@H](NC(=O)C2CCOCC2)CC1` [Example 294, 6-(3-cyanopyrrolo[1,2-b]pyridazin-7-yl)-N-((R)-2-fluoro-3-hydroxy-3-methylbutyl)-4-(((1r,4R)-4-(tetrahydro-2H-pyran-4-carboxamido)cyclohexyl)amino)nicotinamide] yielded an IC50 in assay [1] of 3 nM. Moreover, the EC50 in assay [2] amounted to 735 nM.

In assay [1], `CC(C)(O)[C@H](F)CNC(=O)c1cnc(-c2ccc3cc(C#N)cnn23)cc1NC12CCC(NC(=O)C(F)(F)F)(CC1)CC2` [Example 295, (R)-6-(3-cyanopyrrolo[1,2-b]pyridazin-7-yl)-N-(2-fluoro-3-hydroxy-3-methyl-butyl)-4-((4-(2,2,2-trifluoro-acetamido)bicyclo[2.2.2]octan-1-yl)amino) nicotinamide] returned an IC50 of 1 nM. Moreover, in assay [2], the concentration giving a half-maximal response (EC50) was found to be 38 nM.

For `CC(C)(C)C(=O)N[C@H]1CC[C@H](Nc2cc(-c3ccc4cc(C#N)cnn34)ncc2C(=O)NC[C@@H](F)C(C)(C)O)CC1` [Example 296, 6-(3-cyanopyrrolo[1,2-b]pyridazin-7-yl)-N-((R)-2-fluoro-3-hydroxy-3-methylbutyl)-4-(((1r,4R)-4-pivalamidocyclohexyl)amino)nicotinamide], in assay [1], the IC50 turned out to be 3 nM. Further, the EC50 in assay [2] turned out to be 391 nM.

For `CC(C)(O)[C@H](F)CNC(=O)c1cnc(-c2ccc3cc(C#N)cnn23)cc1N[C@H]1CC[C@H](NC(=O)C2CC2)CC1` [Example 297, 6-(3-cyanopyrrolo[1,2-b]pyridazin-7-yl)-4-(((1r,4R)-4-(cyclopropanecarbox-amido)cyclohexyl)amino)-N-((R)-2-fluoro-3-hydroxy-3-methylbutyl) nicotinamide], the IC50 in assay [1] amounted to 1 nM. Moreover, the EC50 in assay [2] was 80 nM.

In turn, `CC(C)C(=O)N[C@H]1CC[C@H](Nc2cc(-c3ccc4cc(C#N)cnn34)ncc2C(=O)NC[C@@H](F)C(C)(C)O)CC1` [Example 298, 6-(3-cyanopyrrolo[1,2-b]pyridazin-7-yl)-N-((R)-2-fluoro-3-hydroxy-3-methylbutyl)-4-(((1r,4R)-4-isobutyramidocyclohexyl)amino)nicotinamide] showed an IC50 in assay [1] of 2 nM. In addition, in assay [2], the EC50 came out at 214 nM.

In assay [1], `CCC(=O)N[C@H]1CC[C@H](Nc2cc(-c3ccc4cc(C#N)cnn34)ncc2C(=O)NC[C@@H](F)C(C)(C)O)CC1` [Example 299, 6-(3-cyanopyrrolo[1,2-b]pyridazin-7-yl)-N-((R)-2-fluoro-3-hydroxy-3-methyl-butyl)-4-(((1r,4R)-4-propionamidocyclohexyl)amino)nicotinamide] displayed a concentration for half-maximal inhibition (IC50) of 1 nM. Further, the EC50 in assay [2] was found to be 128 nM.

Turning to `COC(=O)NC1CCC(NC(=O)c2cnc(-c3ccc4cc(C#N)cnn34)cc2N[C@H]2CC[C@H](NC(=O)OC)CC2)CC1` (stereo partly drawn) [Example 300, methyl ((1R,4r)-4-(6-(3-cyanopyrrolo[1,2-b]pyridazin-7-yl)-4-(((1r,4R)-4-((methoxycarbonyl)amino)cyclohexyl)amino)nicotinamido)cyclohexyl) carbamate], in assay [1], the IC50 was found to be 1 nM. The concentration for a half-maximal effect (EC50) in assay [2] came to 75 nM.

As for `CC(=O)NC1CCC(NC(=O)c2cnc(-c3ccc4cc(C#N)cnn34)cc2N[C@H]2CC[C@H](NC(C)=O)CC2)CC1` (stereo partly drawn) [Example 301, N-((1s,4S)-4-acetamidocyclohexyl)-4-(((1r,4R)-4-acetamidocyclohexyl)amino)-6-(3-cyanopyrrolo[1,2-b]pyridazin-7-yl)nicotinamide], the midpoint of inhibition in assay [1], the IC50, lay at 2 nM. For the same molecule, the EC50 in assay [2] came to 1410 nM.

Values taken from patent US10336762B2 (priority 2017, dated 2019).
